Data from patent publication US10538498B2, “1,3,4-oxadiazole sulfonamide derivative compounds as histone deacetylase 6 inhibitor, and the pharmaceutical composition comprising the same” (Chong Kun Dang Pharmaceutical Corp., priority 2015, dated 2020).

Columns and labels:
human recombinant HDAC6 = target: T1, human recombinant HDAC6 (Homo sapiens, UniProt Q9UBN7); assay: HDAC6 enzyme activity inhibition assay (HDAC Fluorimetric Drug Discovery Kit); assay type: biochemical; details: for HDAC6 selectivity (fold): HDAC1 vs HDAC6; for IC50: same protocol as the HDAC1 enzyme activity test
T1 construct: purchased Calbiochem 382180
T1 sequence (Q9UBN7 1-1215): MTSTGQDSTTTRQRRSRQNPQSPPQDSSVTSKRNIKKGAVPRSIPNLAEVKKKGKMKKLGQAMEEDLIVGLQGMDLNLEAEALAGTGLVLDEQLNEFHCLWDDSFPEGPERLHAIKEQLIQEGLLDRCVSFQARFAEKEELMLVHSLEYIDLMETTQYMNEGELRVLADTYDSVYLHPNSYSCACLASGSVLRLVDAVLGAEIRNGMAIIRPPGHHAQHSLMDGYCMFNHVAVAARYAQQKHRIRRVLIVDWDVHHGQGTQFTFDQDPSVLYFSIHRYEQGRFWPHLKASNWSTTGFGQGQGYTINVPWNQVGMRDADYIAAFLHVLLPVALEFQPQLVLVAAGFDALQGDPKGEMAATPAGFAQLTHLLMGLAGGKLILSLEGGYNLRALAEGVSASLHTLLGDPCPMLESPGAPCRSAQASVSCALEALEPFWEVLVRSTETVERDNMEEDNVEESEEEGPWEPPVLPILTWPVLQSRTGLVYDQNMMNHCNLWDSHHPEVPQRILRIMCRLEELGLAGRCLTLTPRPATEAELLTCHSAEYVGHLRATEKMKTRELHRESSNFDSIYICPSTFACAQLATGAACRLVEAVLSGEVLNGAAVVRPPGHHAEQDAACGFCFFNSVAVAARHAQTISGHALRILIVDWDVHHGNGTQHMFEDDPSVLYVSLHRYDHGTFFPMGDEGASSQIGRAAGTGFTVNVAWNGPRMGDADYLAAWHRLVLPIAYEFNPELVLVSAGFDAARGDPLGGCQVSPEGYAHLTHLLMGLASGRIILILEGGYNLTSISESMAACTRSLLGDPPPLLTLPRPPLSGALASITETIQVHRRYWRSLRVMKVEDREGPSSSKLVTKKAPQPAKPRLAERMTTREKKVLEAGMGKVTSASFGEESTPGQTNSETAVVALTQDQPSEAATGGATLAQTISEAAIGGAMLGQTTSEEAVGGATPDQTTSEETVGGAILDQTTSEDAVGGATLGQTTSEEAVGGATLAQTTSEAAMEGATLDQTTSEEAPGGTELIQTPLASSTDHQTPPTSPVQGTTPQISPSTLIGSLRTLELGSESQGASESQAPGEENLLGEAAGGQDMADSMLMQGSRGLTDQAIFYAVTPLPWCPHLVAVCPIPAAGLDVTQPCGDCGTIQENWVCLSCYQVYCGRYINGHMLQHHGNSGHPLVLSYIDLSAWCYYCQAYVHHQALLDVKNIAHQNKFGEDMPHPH
Summary of the method: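 Both isoforms are run by an identical fluorimetric protocol: deacetylation of 10 μM Fluor de Lys-SIRT1 substrate by 0.3 μg recombinant enzyme over 60 min at 30° C, in the presence of 5-fold compound dilutions. Signal is developed for 30 min and read at Ex 360/Em 460 to derive IC50.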

human recombinant HDAC1 = target: T2, human recombinant HDAC1 (Homo sapiens, UniProt Q13547); assay: HDAC1 enzyme activity inhibition assay (HDAC Fluorimetric Drug Discovery Kit); assay type: biochemical; details: 0.3 μg enzyme, 10 μM substrate, 30° C., 60 minutes
T2 construct: purchased Enzo Life Science BML-SE456
Procedure: In order to examine the HDAC6 selectivity of the compounds of formula I of the present invention by HDAC1 and HDAC6 enzymatic activity inhibition assays, an experiment was performed using a conventional substance as a control.
HDAC enzyme activity was measured using a HDAC Fluorimetric Drug Discovery Kit (BML-AK511, 516, Enzo Life Science). For the HDAC1 enzyme activity test, human recombinant HDAC1 (BML-SE456) was used as an enzyme source, and Fluor de Lys®-“SIRT1 (BNL-KI177) was used as a substrate. A 5-fold dilution of the compound was seeded into a 96-well plate, and then 0.3 μg of the enzyme and 10 μM of the substrate were added to each well of the plate and allowed to react at 30° C. for 60 minutes. Then, Fluor de Lys®-Developer II (BML-KI176) was added thereto and allowed to react for 30 minutes, after which the fluorescence value (Ex 360, Em 460) was measured using a multi-plate reader (Flexstation 3, Molecular Device). The HDAC6 enzyme was tested using human recombinant HDAC6 (382180) (Calbiochem) according to the same protocol as the HDAC1 enzyme activity test method. Based on the resulting values, each IC50 value was calculated using GraphPad Prism4.0 program.

T2 sequence (Q13547 whole entry): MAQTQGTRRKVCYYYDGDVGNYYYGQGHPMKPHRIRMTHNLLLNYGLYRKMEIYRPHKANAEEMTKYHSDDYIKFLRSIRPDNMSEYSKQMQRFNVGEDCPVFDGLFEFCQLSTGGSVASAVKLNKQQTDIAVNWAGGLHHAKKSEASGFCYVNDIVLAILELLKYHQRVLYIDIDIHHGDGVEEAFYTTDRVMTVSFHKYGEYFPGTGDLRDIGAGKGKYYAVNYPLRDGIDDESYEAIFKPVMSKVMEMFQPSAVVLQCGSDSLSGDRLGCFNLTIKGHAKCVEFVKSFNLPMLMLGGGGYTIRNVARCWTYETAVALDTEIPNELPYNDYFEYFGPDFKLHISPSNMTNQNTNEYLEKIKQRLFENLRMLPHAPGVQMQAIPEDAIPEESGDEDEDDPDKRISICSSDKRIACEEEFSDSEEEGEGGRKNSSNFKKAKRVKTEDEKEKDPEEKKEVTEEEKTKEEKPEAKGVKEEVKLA

Compound | HDAC6 selectivity (fold) (human recombinant HDAC6) | IC50 (human recombinant HDAC6) | IC50 (human recombinant HDAC1)
CS(=O)(=O)N(Cc1cnc(-c2nnc(C(F)F)o2)cn1)c1ccccc1 [Compound 11518, N-((5-(5-(difluoromethyl)-1,3,4-oxadiazol-2-yl)pyrazin-2-yl)methyl)-N-phenylmethanesulfonamide] | 586 fold | 68 nM | 39.8 µM
CCS(=O)(=O)N(Cc1ccc(-c2nnc(C(F)F)o2)cc1F)c1ccc2cnn(C)c2c1 [Compound 11521, N-(4-(5-(difluoromethyl)-1,3,4-oxadiazol-2-yl)-2-fluorobenzyl)-N-(1-methyl-1H-indazol-6-yl)ethanesulfonamide] | 2407 fold | 18 nM | 43.3 µM
CS(=O)(=O)N(Cc1ncc(-c2nnc(C(F)(F)F)o2)cn1)c1ccccc1 [Compound 11565, N-phenyl-N-((5-(5-(trifluoromethyl)-1,3,4-oxadiazol-2-yl)pyrimidin-2-yl)methyl)methanesulfonamide] | 312 fold | 149 nM | 46.5 µM
CS(=O)(=O)N(Cc1ccc(-c2nnc(C(F)(F)F)o2)nn1)c1ccccc1 [Compound 11567, N-phenyl-N-((6-(5-(trifluoromethyl)-1,3,4-oxadiazol-2-yl)pyridazin-3-yl)methyl)methanesulfonamide] | 7 fold | 4330 nM | 30.9 µM
CS(=O)(=O)N(Cc1cnc(-c2nnc(C(F)(F)F)o2)cn1)c1ccccc1 [Compound 11573, N-phenyl-N-((5-(5-(trifluoromethyl)-1,3,4-oxadiazol-2-yl)pyrazin-2-yl)methyl)methanesulfonamide] | 1 fold | 2290 nM | 2.54 µM
CN1CCC(S(=O)(=O)N(Cc2ccc(-c3nnc(C(F)F)o3)cc2)c2ccccc2)CC1 [Compound 11637, N-(4-(5-(difluoromethyl)-1,3,4-oxadiazol-2-yl)benzyl)-1-methyl-N-phenylpiperidine-4-sulfonamide] | 3349 fold | 20 nM | 67 µM
CC(C)N1CCC(S(=O)(=O)N(Cc2ccc(-c3nnc(C(F)F)o3)cc2)c2ccccc2)CC1 [Compound 11638, N-(4-(5-(difluoromethyl)-1,3,4-oxadiazol-2-yl)benzyl)-1-isopropyl-N-phenylpiperidine-4-sulfonamide] | 1778 fold | 23 nM | 40.9 µM
O=S(=O)(C1CCN(C2CCC2)CC1)N(Cc1ccc(-c2nnc(C(F)F)o2)cc1)c1ccccc1 [Compound 11639, 1-cyclobutyl-N-(4-(5-(difluoromethyl)-1,3,4-oxadiazol-2-yl)benzyl)-N-phenylpiperidine-4-sulfonamide] | 1849 fold | 42 nM | 77.7 µM
O=S(=O)(CCN1CCCC1)N(Cc1ccc(-c2nnc(C(F)F)o2)cc1)c1ccccc1 [Compound 11645, N-(4-(5-(difluoromethyl)-1,3,4-oxadiazol-2-yl)benzyl)-N-phenyl-2-(pyrrolidin-1-yl)ethane-1-sulfonamide] | 1277 fold | 61 nM | 77.9 µM
C[C@@H]1CN(CCS(=O)(=O)N(Cc2ccc(-c3nnc(C(F)F)o3)cc2)c2ccccc2)C[C@H](C)N1C [Compound 11646, N-(4-(5-(difluoromethyl)-1,3,4-oxadiazol-2-yl)benzyl)-N-phenyl-2-((3S,5R)-3,4,5-trimethylpiperazin-1-yl)ethane-1-sulfonamide] | 7254 fold | 15 nM | 109 µM
O=S(=O)(CCCN1CCCC1)N(Cc1ccc(-c2nnc(C(F)F)o2)cc1)c1ccccc1 [Compound 11647, N-(4-(5-(difluoromethyl)-1,3,4-oxadiazol-2-yl)benzyl)-N-phenyl-3-(pyrrolidin-1-yl)propane-1-sulfonamide] | 3626 fold | 22 nM | 79.8 µM
CS(=O)(=O)N1CCN(CCCS(=O)(=O)N(Cc2ccc(-c3nnc(C(F)F)o3)cc2)c2ccccc2)CC1 [Compound 11648, N-(4-(5-(difluoromethyl)-1,3,4-oxadiazol-2-yl)benzyl)-3-(4-(methylsulfonyl)piperazin-1-yl)-N-phenylpropane-1-sulfonamide] | 8300 fold | 60 nM | 498 µM
O=C(c1cncn1CCS(=O)(=O)N(Cc1ccc(-c2nnc(C(F)F)o2)cc1)c1ccccc1)C(F)F [Compound 11678, 2-(5-(2,2-difluoroacetyl)-1H-imidazol-1-yl)-N-(4-(5-(difluoromethyl)-1,3,4-oxadiazol-2-yl)benzyl)-N-phenylethane-1-sulfonamide] | 975 fold | 56 nM | 54.6 µM
O=S(=O)(CCN1CCN(CCCO)CC1)N(Cc1ccc(-c2nnc(C(F)F)o2)cc1)c1ccccc1 [Compound 11679, N-(4-(5-(difluoromethyl)-1,3,4-oxadiazol-2-yl)benzyl)-2-(4-(3-hydroxypropyl)piperazin-1-yl)-N-phenylethane-1-sulfonamide] | 2666 fold | 23 nM | 61.3 µM
O=S(=O)(C1CCN(C2COC2)CC1)N(Cc1ccc(-c2nnc(C(F)F)o2)cc1)c1ccccc1 [Compound 11680, N-(4-(5-(difluoromethyl)-1,3,4-oxadiazol-2-yl)benzyl)-1-(oxetan-3-yl)-N-phenylpiperidine-4-sulfonamide] | 2634 fold | 29 nM | 76.4 µM
Cc1cccc(N(Cc2ccc(-c3nnc(C(F)F)o3)cn2)S(=O)(=O)C2CCN(C3CC4CCC3C4)CC2)c1 (stereo not drawn) [Compound 11686, 1-(bicyclo[2.2.1]heptan-2-yl)-N-((5-(5-(difluoromethyl)-1,3,4-oxadiazol-2-yl)pyridin-2-yl)methyl)-N-(m-tolyl)piperidine-4-sulfonamide] | 654 fold | 92.1 nM | 60.3 µM
Cc1cccc(N(Cc2ccc(-c3nnc(C(F)F)o3)cn2)S(=O)(=O)C2CCN(C3CCC(F)(F)CC3)CC2)c1 [Compound 11687, 1-(4,4-difluorocyclohexyl)-N-((5-(5-(difluoromethyl)-1,3,4-oxadiazol-2-yl)pyridin-2-yl)methyl)-N-(m-tolyl)piperidine-4-sulfonamide] | 741 fold | 107 nM | 79.1 µM
Cc1cccc(N(Cc2ccc(-c3nnc(C(F)F)o3)cn2)S(=O)(=O)C2CCN([C@H]3CC[C@H](F)CC3)CC2)c1 [Compound 11688, N-((5-(5-(difluoromethyl)-1,3,4-oxadiazol-2-yl)pyridin-2-yl)methyl)-1-((1r,4r)-4-fluorocyclohexyl)-N-(m-tolyl)piperidine-4-sulfonamide] | 423 fold | 47.7 nM | 20.2 µM
Cc1cccc(N(Cc2ccc(-c3nnc(C(F)F)o3)cn2)S(=O)(=O)C2CCN([C@H]3CC[C@@H](F)CC3)CC2)c1 [Compound 11689, N-((5-(5-(difluoromethyl)-1,3,4-oxadiazol-2-yl)pyridin-2-yl)methyl)-1-((1s,4s)-4-fluorocyclohexyl)-N-(m-tolyl)piperidine-4-sulfonamide] | 429 fold | 46.6 nM | 20 µM
